Results reported in patent US20230293535A1, “ERBB/BTK INHIBITORS” (Dizal (Jiangsu) Pharmaceutical Co., Ltd., priority 2018, published 2023).
pIC50: −log10 of the molar value.

Legend:
Type in all cases: cell-based
WT EGFR cell line A-431 = assay: Cell proliferation, WT EGFR A431 (CellTiter-Glo, 72 h); settings: Homo sapiens, A-431, 72 h, A431, 72 h proliferation; read-out: EGFR WT A431 GI50;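 note: proliferation from a luminescent ATP viability signal, expressed as 100 × (treated minus time-zero plate) over (DMSO control minus time-zero plate), cells grown with 10% FBS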
TMD-8 cells = assay: BTK (wt) cell proliferation, TMD-8 (CellTiter-Glo, 72 h); settings: Homo sapiens, TMD8, 72 h, TMD-8 cells, 72 h, CellTiter-Glo; read-out: BTK WT TMD-8 GI50;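 note: viable cells quantified by ATP-based luminescence, proliferation expressed as percent of DMSO control after subtracting a time-zero baseline plate read at dosing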
Protocol: OCI-LY-10 at 3,750 cells/well, TMD-8 and Ri-1 at 2,000 cells/well, and DB at 1,250 cells/well, respectively, were sorted into 384-well plates in RPMI1640 medium with 10% FBS. After overnight incubation, all cells were incubated with compound at a series of concentrations. Meanwhile, a duplicated plate of each cell line was prepared for measuring G0 value. The dosed plates were further incubated for 72 hours and the number of viable cells was measured by CellTiter-Glo® Luminescent Cell Viability Assay (Promega), a luminescent method for determining the number of viable cells through measurement of cellular ATP concentration using Envision plate reader (PerkinElmer). The percentage of proliferation was calculated as: % Proliferation = 100 × (G3 value of sample well - G0 value)/(G3 value of DMSO control - G0 value).

WT EGFR = target: T1, WT EGFR (Homo sapiens, UniProt P00533); assay: WT EGFR cellular phosphorylation inhibition in A-431 (hEGF stimulated, MSD); settings: A431 cells, 4 h compound, then 100 ng/ml hEGF 10 min;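 note: electrochemiluminescence read-out of EGFR Tyr1068 phosphorylation expressed as ratio to total EGFR, cells kept in medium with 1% FBS, compounds tested as a concentration series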
T1 construct: host or cells: A-431

[1] = system: NCI-H1975 EGFR L858R/T790M cells; assay: Cell proliferation, NCI-H1975 EGFR L858R/T790M (CellTiter-Glo, 72 h); settings: Homo sapiens, NCI-H1975, 72 h, NCI-H1975, 72 h proliferation; read-out: EGFR L858R and T790M mutation GI50;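 note: viable cells quantified by luciferase-based ATP luminescence, proliferation expressed relative to DMSO-treated wells (100%) after subtracting a parallel plate read at the time of dosing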
[2] = target: T2, human Her2 exon 20 insertion mutation YVMA (Homo sapiens, UniProt P04626, INS775YVMA); assay: Her2 Exon 20 YVMA insertion cellular phosphorylation inhibition (MSD p-Her2 Y1248/total Her2); settings: Her2 YVMAins cells, 4 h compound;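 note: lentivirally transduced NIH-3T3 cells in 1% FBS medium, electrochemiluminescent MSD read-out, graded compound concentrations at 37 °C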
T2 construct: expressed in transfected cells; host or cells: NIH-3T3, lentiviral transduction, puromycin selection

OCI-LY-10 cells = assay: BTK (wt) cell proliferation, OCI-LY-10 (CellTiter-Glo, 72 h); settings: Homo sapiens, OCI-Ly10, 72 h, OCI-LY-10 cells, 72 h, CellTiter-Glo; read-out: BTK WT OCI-LY-10 GI50;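 note: viable cells quantified via cellular ATP luminescence, proliferation given as percent of DMSO control after subtracting a duplicate plate read at time of dosing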
EGFR L858R&T790M = target: T3, EGFR L858R&T790M (Homo sapiens, UniProt P00533, L858R/T790M); assay: EGFR L858R and T790M cellular phosphorylation inhibition in NCI-H1975 (MSD); settings: NCI-H1975 cells, 4 h compound, p-EGFR(Y1068)/total EGFR; read-out: EGFR L858R and T790M mutation IC50;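 note: phosphorylated and total EGFR detected by electrochemiluminescence, cells exposed to compound in medium containing 1% FBS at 37 °C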
T3 construct: host or cells: NCI-H1975

Ri-1 cells = assay: BTK (wt) cell proliferation, Ri-1 (CellTiter-Glo, 72 h); settings: Ri-1, 72 h, Ri-1 cells, 72 h, CellTiter-Glo; read-out: BTK WT Ri-1 GI50;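 note: viable cells quantified as cellular ATP luminescence, proliferation normalized to a time-zero plate and the DMSO control, compounds tested across a dilution series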
[3] = target: T4, human EGFR exon 20 H773_V774insNPH (Homo sapiens, UniProt P00533, INS773NPH); assay: EGFR Exon20 NPH insertion cellular phosphorylation inhibition (MSD pEGFR Y1068/total EGFR); settings: Ba/F3 EGFR NPH ins cells, 4 h compound, p-EGFR(Y1068)/total EGFR;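 note: IL3-independent Ba/F3 cells with constitutively phosphorylated EGFR, compound exposure at 37 °C under 5% CO2, electrochemiluminescent MSD measurement of the p-EGFR to total EGFR ratio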
T4 construct: host or cells: Ba/F3

[4] = system: Her2 exon 20 insertion YVMA transduced NIH-3T3 cell line; assay: Cell proliferation, Her2 YVMAins NIH-3T3 (CellTiter-Glo, 72 h); settings: Mus musculus, NIH3T3, 72 h, Her2 YVMAins cells, 72 h proliferation; read-out: Her2 Exon 20 YVMA insertion GI50;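 note: viable cells quantified by ATP luminescence, growth over a day-zero baseline plate expressed as percent of DMSO control growth, compound dilution series in 10% FBS medium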
Protocol: WT or mutant cells were seeded in 384 well plates at appropriate concentrations with corresponding growth media supplemented with 10% FBS, for each experiment, identical plates were prepared in duplicates, and the plates were incubated overnight. On the next day, one of each duplicated plates was dosed with tested compounds at a series of concentrations, and another one of the duplicated plate was analysied for G0 value. The dosed plates were incubate for another 72 h at 37° C. with 5% CO2 and the number of viable cells in each well of the G0 plates or the dosed plates were measured by CellTiter-Glo® Luminescent Cell Viability Assay (Promega). This assay is a luminescent method for determining the number viable cells through measurement of cellular ATP concentration by detection of luciferase activity. Detection reagents (15 µl) was dispensed into per well, and the plates were incubate for 30 min at room temperature. Then, the luminescence in each well was measured using the Envision plate reader (PerkinElmer). The percentage of proliferation was calculated based on the formula: %Proliferation= 100 × (G3 value of sample well-Go value)/(G3 value of DMSO control-Go value).

Ba/F3 EGFR NPH ins cells = assay: Cell proliferation, Ba/F3 EGFR NPH ins (CellTiter-Glo, 72 h); settings: Ba/F3 EGFR, 72 h, Ba/F3 EGFR NPH ins, 72 h proliferation; read-out: EGFR Exon20 NPH insertion GI50;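 note: IL3-independent cells carrying constitutively phosphorylated EGFR, compound dilution series, viable cells quantified by ATP luminescence, growth relative to DMSO wells after subtracting pre-dosing (day 0) baseline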
[5] = target: T5, human EGFR exon 20 V769_D770insASV (Homo sapiens, UniProt P00533, INS769ASV); assay: EGFR Exon20 ASV insertion cellular phosphorylation inhibition (MSD pEGFR Y1068/total EGFR); settings: Ba/F3 EGFR ASV ins cells, 4 h compound, p-EGFR(Y1068)/total EGFR;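 note: electrochemiluminescent readout on an MSD SECTOR Imager, IL3-independent transduced cells in medium with 1% FBS, compound concentration series at 37 °C and 5% CO2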
T5 construct: expressed in transfected cells; host or cells: Ba/F3 (DSMZ ACC-300), lentiviral transduction, puromycin selection, IL3 depletion
Protocol: To generate the EGFR exon 20 V769_D770insASV transduced Ba/F3 cell line, the parental Ba/F3 cells were infected with the recombinant EGFR V769_D770insASV lentivirus and then followed by 1 µg/ml of puromycin selection and IL3 depletion. The resulting cell line expresses constitutively phosphorylated EGFR protein and proliferates in the absence of IL3, which could be used for in vitro PD and anti-proliferation assays.
One day before the test, WT or mutant cells were seeded in 96 well plates at appropriate concentrations with corresponding growth media supplemented with 1% FBS, and incubated overnight. The next day, tested compounds at a series of concentrations were added into each individual well of the plates, and the plates were incubated for 4 h at 37° C. with 5% CO2.
The EGFR (Y1068) phosphorylation level (activity) of cells in each well were then measured with MSD kit named “MULTI-SPOT®96 4-Spot HB Prototype EGFR Triplex [sequence]: pEGFR(Tyr1068),pEGFR(Tyr1173), Total EGFR” according to the manufacturer’s instruction (MESO SCALE DISCOVERY, Cat# N45ZB-1). The assay is an electrochemiluminescent method for determining both phosphorylated and total EGFR of cells with an MSD SECTOR® Imager and the ratio of p-EGFR/total EGFR can be generated by the machine. The Her2 (Y1248) phosphorylation level (activity) of cells in each well were measured with MSD Kit named “Phospho-ErbB2 (Tyr1248) Assay Whole Cell Lysate Kit” according to the manufacturer’s instruction (MESO SCALE DISCOVERY, Cat# K151CLD-3). The assay is an electrochemiluminescent method (MESO SCALE DISCOVERY) for determining both phosphorylated and total Her2 of cells with an MSD SECTOR® Imager and then the ratio of p-Her2/total Her2 can be generated by the machine.

Ba/F3 EGFR ASV ins cells = assay: Cell proliferation, Ba/F3 EGFR ASV ins (CellTiter-Glo, 72 h); settings: Ba/F3 EGFR, 72 h, Ba/F3 EGFR ASV ins, 72 h proliferation; read-out: EGFR Exon20 ASV insertion GI50;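 note: IL3-independent Ba/F3 cells transduced with EGFR V769_D770insASV, cellular ATP luminescence after compound exposure, growth relative to DMSO control with the day-0 baseline reading subtracted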
DB cells = assay: BTK (wt) cell proliferation, DB (CellTiter-Glo, 72 h); settings: Homo sapiens, DB, DB cells, CellTiter-Glo, read-out: Non-BCR activated DB GI50;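 note: DB cells in 384-well plates given a dilution series of compound, viable cells read by ATP luminescence, growth expressed versus DMSO control after subtracting a time-zero plate reading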

T2 sequence (P04626 with tags, fused parts or gaps INS775YVMA): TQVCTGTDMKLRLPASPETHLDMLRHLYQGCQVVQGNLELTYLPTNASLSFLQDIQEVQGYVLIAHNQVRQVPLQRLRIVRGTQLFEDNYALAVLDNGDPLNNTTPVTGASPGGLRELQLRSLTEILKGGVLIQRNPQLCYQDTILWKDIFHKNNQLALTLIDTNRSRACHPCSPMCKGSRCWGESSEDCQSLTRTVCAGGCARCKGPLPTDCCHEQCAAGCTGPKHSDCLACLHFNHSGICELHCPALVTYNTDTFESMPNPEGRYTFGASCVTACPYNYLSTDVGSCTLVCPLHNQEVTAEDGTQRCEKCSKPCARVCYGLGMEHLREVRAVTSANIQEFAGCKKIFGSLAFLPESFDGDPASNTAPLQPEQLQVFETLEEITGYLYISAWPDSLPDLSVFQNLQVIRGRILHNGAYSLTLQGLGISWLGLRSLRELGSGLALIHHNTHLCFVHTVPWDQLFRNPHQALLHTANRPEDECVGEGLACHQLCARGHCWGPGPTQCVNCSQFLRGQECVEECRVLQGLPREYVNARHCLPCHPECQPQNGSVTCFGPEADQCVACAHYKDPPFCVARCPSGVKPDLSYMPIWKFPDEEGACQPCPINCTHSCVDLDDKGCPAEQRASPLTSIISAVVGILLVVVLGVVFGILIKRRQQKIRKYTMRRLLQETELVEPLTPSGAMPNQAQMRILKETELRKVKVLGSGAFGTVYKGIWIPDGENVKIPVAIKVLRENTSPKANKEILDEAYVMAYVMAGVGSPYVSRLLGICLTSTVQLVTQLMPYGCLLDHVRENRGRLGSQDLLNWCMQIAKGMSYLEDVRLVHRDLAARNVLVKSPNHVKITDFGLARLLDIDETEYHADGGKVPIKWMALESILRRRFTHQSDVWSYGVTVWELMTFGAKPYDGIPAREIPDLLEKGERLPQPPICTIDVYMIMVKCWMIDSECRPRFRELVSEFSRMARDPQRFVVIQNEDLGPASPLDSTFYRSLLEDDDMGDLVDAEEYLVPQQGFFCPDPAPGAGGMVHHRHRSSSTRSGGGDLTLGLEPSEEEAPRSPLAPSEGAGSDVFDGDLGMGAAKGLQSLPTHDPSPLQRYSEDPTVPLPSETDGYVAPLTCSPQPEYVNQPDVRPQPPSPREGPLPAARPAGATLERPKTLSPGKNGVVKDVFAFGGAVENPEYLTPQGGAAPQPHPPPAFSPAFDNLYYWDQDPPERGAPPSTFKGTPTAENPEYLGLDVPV
T5 sequence (P00533 with tags, fused parts or gaps INS769ASV): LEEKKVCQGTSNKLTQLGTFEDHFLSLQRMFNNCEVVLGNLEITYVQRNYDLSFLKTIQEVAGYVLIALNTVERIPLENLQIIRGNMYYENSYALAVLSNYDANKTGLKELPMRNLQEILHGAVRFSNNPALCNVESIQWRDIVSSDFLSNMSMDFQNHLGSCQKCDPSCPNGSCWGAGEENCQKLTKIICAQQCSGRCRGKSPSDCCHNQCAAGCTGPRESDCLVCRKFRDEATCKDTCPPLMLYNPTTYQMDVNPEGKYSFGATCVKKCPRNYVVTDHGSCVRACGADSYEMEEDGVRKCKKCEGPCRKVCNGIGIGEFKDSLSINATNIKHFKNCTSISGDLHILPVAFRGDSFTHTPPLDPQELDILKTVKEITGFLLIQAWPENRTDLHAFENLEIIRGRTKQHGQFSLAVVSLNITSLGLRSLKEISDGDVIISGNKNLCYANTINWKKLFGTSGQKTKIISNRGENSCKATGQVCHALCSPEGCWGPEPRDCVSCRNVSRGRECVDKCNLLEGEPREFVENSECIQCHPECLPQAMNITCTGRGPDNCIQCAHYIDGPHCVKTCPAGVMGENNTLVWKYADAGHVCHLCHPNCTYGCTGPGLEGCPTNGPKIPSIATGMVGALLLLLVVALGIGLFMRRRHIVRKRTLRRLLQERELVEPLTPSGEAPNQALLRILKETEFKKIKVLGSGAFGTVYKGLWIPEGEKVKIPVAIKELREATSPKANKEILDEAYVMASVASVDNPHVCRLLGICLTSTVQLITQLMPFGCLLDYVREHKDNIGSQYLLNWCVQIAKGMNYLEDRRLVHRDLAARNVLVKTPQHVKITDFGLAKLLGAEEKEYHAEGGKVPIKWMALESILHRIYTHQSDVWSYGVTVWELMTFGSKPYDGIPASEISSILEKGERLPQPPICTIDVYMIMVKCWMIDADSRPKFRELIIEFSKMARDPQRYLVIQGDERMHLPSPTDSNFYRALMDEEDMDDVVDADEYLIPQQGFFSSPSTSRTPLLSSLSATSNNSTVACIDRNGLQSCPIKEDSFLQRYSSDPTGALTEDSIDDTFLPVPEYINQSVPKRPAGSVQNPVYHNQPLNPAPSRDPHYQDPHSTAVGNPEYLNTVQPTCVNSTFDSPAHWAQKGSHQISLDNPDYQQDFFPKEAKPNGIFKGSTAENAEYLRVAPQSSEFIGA
T4 sequence (P00533 with tags, fused parts or gaps INS773NPH): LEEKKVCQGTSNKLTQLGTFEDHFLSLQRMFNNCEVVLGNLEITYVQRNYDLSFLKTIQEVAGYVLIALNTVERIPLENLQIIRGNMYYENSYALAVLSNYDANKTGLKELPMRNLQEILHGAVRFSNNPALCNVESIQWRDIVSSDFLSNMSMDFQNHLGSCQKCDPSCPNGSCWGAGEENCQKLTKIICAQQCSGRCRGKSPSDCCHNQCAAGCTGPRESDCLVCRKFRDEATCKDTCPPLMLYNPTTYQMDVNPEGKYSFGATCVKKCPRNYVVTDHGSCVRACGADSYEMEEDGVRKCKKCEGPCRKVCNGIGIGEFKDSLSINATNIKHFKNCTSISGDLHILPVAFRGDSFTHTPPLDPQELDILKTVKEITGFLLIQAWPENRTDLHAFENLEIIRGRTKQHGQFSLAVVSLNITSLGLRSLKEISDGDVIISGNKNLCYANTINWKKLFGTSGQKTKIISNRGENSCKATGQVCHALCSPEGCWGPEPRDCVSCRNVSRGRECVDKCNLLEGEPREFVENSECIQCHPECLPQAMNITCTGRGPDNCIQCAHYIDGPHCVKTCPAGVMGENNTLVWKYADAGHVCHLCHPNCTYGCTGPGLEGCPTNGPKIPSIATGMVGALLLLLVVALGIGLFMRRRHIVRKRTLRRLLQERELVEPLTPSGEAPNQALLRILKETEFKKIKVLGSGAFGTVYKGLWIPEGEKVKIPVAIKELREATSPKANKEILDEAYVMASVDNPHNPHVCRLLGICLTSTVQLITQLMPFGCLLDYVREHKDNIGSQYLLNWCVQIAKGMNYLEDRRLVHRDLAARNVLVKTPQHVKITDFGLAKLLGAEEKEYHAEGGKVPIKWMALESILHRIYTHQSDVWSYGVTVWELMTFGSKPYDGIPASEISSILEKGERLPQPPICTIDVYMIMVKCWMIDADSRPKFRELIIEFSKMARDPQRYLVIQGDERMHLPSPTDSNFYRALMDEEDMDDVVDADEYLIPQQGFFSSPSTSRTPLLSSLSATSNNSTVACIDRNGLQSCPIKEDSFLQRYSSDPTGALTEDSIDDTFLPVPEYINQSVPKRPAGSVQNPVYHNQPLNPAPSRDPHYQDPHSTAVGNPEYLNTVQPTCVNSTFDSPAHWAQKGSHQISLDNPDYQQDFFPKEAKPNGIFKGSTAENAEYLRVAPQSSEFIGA
T3 sequence (P00533 25-1210 T790M/L858R): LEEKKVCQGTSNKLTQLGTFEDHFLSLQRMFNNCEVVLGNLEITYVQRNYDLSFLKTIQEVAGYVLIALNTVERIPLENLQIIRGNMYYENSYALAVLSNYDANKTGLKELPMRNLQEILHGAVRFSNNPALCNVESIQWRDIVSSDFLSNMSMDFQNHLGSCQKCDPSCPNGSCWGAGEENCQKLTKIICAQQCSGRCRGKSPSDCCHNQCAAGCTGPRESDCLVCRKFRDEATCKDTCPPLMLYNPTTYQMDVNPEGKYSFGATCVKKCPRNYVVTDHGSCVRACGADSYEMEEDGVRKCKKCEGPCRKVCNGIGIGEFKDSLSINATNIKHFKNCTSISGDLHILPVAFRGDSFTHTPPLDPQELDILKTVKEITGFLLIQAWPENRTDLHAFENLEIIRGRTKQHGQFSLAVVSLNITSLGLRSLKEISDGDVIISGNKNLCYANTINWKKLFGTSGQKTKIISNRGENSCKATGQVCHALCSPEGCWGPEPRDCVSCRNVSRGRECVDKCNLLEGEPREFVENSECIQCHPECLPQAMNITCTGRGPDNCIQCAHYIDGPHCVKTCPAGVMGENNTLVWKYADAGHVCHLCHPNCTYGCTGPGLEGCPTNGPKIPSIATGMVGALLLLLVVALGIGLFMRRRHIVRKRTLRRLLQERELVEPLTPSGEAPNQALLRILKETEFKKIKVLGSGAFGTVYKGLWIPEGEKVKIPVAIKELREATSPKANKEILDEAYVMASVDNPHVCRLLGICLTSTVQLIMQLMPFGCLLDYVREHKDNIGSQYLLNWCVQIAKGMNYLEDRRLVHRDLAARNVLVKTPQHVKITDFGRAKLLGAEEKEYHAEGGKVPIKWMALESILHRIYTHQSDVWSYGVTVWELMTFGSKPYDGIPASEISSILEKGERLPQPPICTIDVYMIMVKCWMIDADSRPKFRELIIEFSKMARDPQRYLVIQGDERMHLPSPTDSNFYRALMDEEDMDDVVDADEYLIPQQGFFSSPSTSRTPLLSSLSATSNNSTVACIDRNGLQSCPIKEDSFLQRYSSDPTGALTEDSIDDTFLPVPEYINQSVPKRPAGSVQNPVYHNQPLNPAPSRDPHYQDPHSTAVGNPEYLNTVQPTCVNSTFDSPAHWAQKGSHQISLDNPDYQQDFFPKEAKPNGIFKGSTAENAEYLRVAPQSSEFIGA

SMILES | GI50 (WT EGFR cell line A-431) [µM] | GI50 (TMD-8 cells) [µM] | pIC50 (WT EGFR) | GI50 [1] [µM] | pIC50 [2] | GI50 (OCI-LY-10 cells) [µM] | pIC50 (EGFR L858R&T790M) | GI50 (Ri-1 cells) [µM] | pIC50 [3] | GI50 [4] [µM] | GI50 (Ba/F3 EGFR NPH ins cells) [µM] | pIC50 [5] | GI50 (Ba/F3 EGFR ASV ins cells) [µM] | GI50 (DB cells) [µM]
C=CC(=O)Nc1cc(Nc2ncnc(Nc3cc(F)c(F)cc3C(C)(O)CC)n2)c(OC)cc1N1CC[C@@H]2CN(C)C[C@@H]21 (stereo partly drawn) [Compound 47, N-(5-(4-(4,5-difluoro-2-(2-hydroxybutan-2-yl)phenylamino)-1,3,5-triazin-2-ylamino)-4-methoxy-2-((3aR,6aR)-5-methylhexahydropyrrolo[3,4-b]pyrrol-1(2H)-yl)phenyl) acrylamide] | 0.0109 | 0.0553 | 7.62 | 0.0019 | 8.36 | 0.775 | 9.52 | 0.208 | 8.25 | 0.0341 | 0.0271 | 8.00 | 0.0221 | > 3
C=CC(=O)Nc1cc(Nc2ncnc(Nc3cc(F)c(F)cc3C(C)(C)O)n2)c(OC)cc1N1CCC[C@@H]1CN(C)C [Compound 21, (R)-N-(5-(4-(4,5-difluoro-2-(2-hydroxypropan-2-yl)phenylamino)-1,3,5-triazin-2-ylamino)-2-(2-((dimethylamino)methyl)pyrrolidin-1-yl)-4-methoxyphenyl)acrylamide] | 0.0041 | 0.0192 | 8.29 | 0.0025 | 8.77 | 0.0097 | 9.70 | 0.0112 | 8.17 | 0.0132 | 0.0112 | 8.64 | 0.0082 | > 3
C=CC(=O)Nc1cc(Nc2ncnc(Nc3cc(Cl)c(F)cc3C(C)(O)CC)n2)c(OC)cc1N1CC[C@@H]1CN(C)C (stereo partly drawn) [Compound 56, N-(5-(4-(5-chloro-4-fluoro-2-(2-hydroxybutan-2-yl)phenylamino)-1,3,5-triazin-2-ylamino)-2-((R)-2-((dimethylamino)methyl)azetidin-1-yl)-4-methoxyphenyl)acrylamide] | 0.0143 | 0.00707 | 7.45 | 0.0042 | 8.11 | 0.0146 | 9.00 | 0.0134 | 7.75 | 0.0766 | 0.0638 | 7.81 | 0.0451 | > 3
C=CC(=O)Nc1cc(Nc2ncnc(Nc3cc(F)c(F)cc3C(C)(O)CC)n2)c(OC)cc1N(C)CCN(C)C (centres unmarked) [Compound 49, N-(5-(4-(4,5-difluoro-2-(2-hydroxybutan-2-yl)phenylamino)-1,3,5-triazin-2-ylamino)-2-((2-(dimethylamino)ethyl)(methyl)amino)-4-methoxyphenyl)acr ylamide] | 0.0153 | 0.107 | 7.64 | 0.0015 | 8.21 | 1.25 | 9.30 | 0.566 | 7.71 | 0.0361 | 0.0316 | 8.02 | 0.0319 | > 3
C=CC(=O)Nc1cc(Nc2ncnc(Nc3cc(Cl)c(F)cc3C(C)(C)O)n2)c(OC)cc1N(C)CCN1CCCC1 [Compound 29, N-(5-(4-(5-chloro-4-fluoro-2-(2-hydroxypropan-2-yl)phenylamino)-1,3,5-triazin-2-ylamino)-4-methoxy-2-(methyl(2-(pyrrolidin-1-yl)ethyl)amino)phenyl)acrylamide] | 0.0201 | 0.0113 | 7.34 | 0.0069 | 8.12 | 0.0355 | 9.00 | 0.0448 | 7.64 | 0.0683 | 0.0527 | 7.76 | 0.0452 | > 3
C=CC(=O)Nc1cc(Nc2ncnc(Nc3cc(F)c(F)cc3C(C)(O)CC)n2)c(OC)cc1N1CC[C@@H](N(C)C)C1 (stereo partly drawn) [Compound 48, N-(5-(4-(4,5-difluoro-2-(2-hydroxybutan-2-yl)phenylamino)-1,3,5-triazin-2-ylamino)-2-((R)-3-(dimethylamino)pyrrolidin-1-yl)-4-methoxyphenyl)acrylamide] | 0.0141 | 0.0702 | 7.55 | 0.0032 | 8.55 | 0.0141 | 9.40 | 0.371 | 7.95 | 0.0579 | 0.0579 | 7.79 | 0.0291 | > 3
C=CC(=O)Nc1cc(Nc2ncnc(Nc3cc(F)c(C4CC4)cc3C(C)(C)O)n2)c(OC)cc1N1CC[C@@H]2CN(C)C[C@@H]21 [Compound 45, N-(5-(4-(4-cyclopropyl-5-fluoro-2-(2-hydroxypropan-2-yl)phenylamino)-1,3,5-triazin-2-ylamino)-4-methoxy-2-((3aR,6aR)-5-methylhexahydropyrrolo[3,4-b]pyrrol-1(2H)-yl)phenyl)acrylamide] | 0.0043 | 0.00233 | 8.12 | 0.0011 | 8.52 | 0.00525 | 9.52 | 0.0116 | 8.54 | 0.0308 | 0.0178 | 8.19 | 0.0136 | > 3
C=CC(=O)Nc1cc(Nc2ncc(C(F)(F)F)c(Nc3cc(Cl)c(F)cc3C(C)(C)O)n2)c(OC)cc1N1CC[C@@H](N(C)C)C1 [Compound 84, (R)-N-(5-(4-(5-chloro-4-fluoro-2-(2-hydroxypropan-2-yl)phenylamino)-5-(trifluoromethyl)pyrimidin-2-ylamino)-2-(3-(dimethylamino)pyrrolidin-1-yl)-4-methoxyphenyl)acrylamide] | 0.233 | 0.0398 | 6.22 | 0.0191 | 5.81 | 0.0312 | 9.40 | 0.137 | 6.59 | 0.341 | 0.191 | 6.94 | 0.45 | > 3
C=CC(=O)Nc1cc(Nc2ncnc(Nc3cc4ccn(C)c4cc3C(C)(C)O)n2)c(OC)cc1N(C)CCN(C)C [Compound 32, N-(2-((2-(dimethylamino)ethyl)(methyl)amino)-5-(4-(6-(2-hydroxypropan-2-yl)-1-methyl-1H-indol-5-ylamino)-1,3,5-triazin-2-ylamino)-4-methoxyphenyl)acrylamide] | 0.006 | 0.00026 | 7.96 | 0.0018 | 8.11 | 0.00029 | 9.40 | 0.00071 | 7.83 | 0.0352 | 0.0191 | 8.43 | 0.0193 | > 3
C=CC(=O)Nc1cc(Nc2ncnc(Nc3cc(Cl)c(F)cc3C(C)(C)O)n2)c(OC)cc1N1CCOC[C@@H]1CN(C)C [Compound 40, (S)-N-(5-(4-(5-chloro-4-fluoro-2-(2-hydroxypropan-2-yl)phenylamino)-1,3,5-triazin-2-ylamino)-2-(3-((dimethylamino)methyl)morpholino)-4-methoxyphenyl)acrylamide] | 0.0136 | 0.0151 | 7.71 | 0.0021 | 8.30 | 0.0151 | 9.05 | 0.0119 | 7.96 | 0.0434 | 0.022 | 7.89 | 0.0257 | > 3
